From PMC12670405, “Second-Generation AURKA-Targeting PROTACs: Structural Optimization toward in Vivo Degradation in Neuroblastoma” (Journal of Medicinal Chemistry, 2025)

What was measured:
Assay in all cases: KINOMEscan scanMAX
Assay type in all cases: binding
Conditions in all cases: read-out: Percent Control
p38-delta = target: T1, p38-delta (Homo sapiens, UniProt O15264)
T1 construct: purchased Eurofins Discovery (DiscoverX KINOMEscan scanMAX)
Method: (§1) The kinome-wide binding assay was performed by Eurofins Discovery using the scanMAX screening platform. More information can be found on the Eurofins Discovery Web site.

HCK = target: T2, HCK (Homo sapiens, UniProt P08631)
T2 construct: purchased Eurofins Discovery (DiscoverX KINOMEscan scanMAX)
Method: as §1

MET = target: T3, MET (Homo sapiens, UniProt P08581)
T3 construct: purchased Eurofins Discovery (DiscoverX KINOMEscan scanMAX)
Method: as §1

PDGFRB = target: T4, PDGFRB (Homo sapiens, UniProt P09619)
T4 construct: purchased Eurofins Discovery (DiscoverX KINOMEscan scanMAX)
Method: as §1

TRPM6 = target: T5, TRPM6 (Homo sapiens, UniProt Q9BX84)
T5 construct: purchased Eurofins Discovery (DiscoverX KINOMEscan scanMAX)
Method: as §1

LIMK2 = target: T6, LIMK2 (Homo sapiens, UniProt P53671)
T6 construct: purchased Eurofins Discovery (DiscoverX KINOMEscan scanMAX)
Method: as §1

ERBB3 = target: T7, ERBB3 (Homo sapiens, UniProt P21860)
T7 construct: purchased Eurofins Discovery (DiscoverX KINOMEscan scanMAX)
Method: as §1

CDKL1 = target: T8, CDKL1 (Homo sapiens, UniProt Q00532)
T8 construct: purchased Eurofins Discovery (DiscoverX KINOMEscan scanMAX)
Method: as §1

FGFR2 = target: T9, FGFR2 (Homo sapiens, UniProt P21802)
T9 construct: purchased Eurofins Discovery (DiscoverX KINOMEscan scanMAX)
Method: as §1

SGK3 = target: T10, SGK3 (Homo sapiens, UniProt Q96BR1)
T10 construct: purchased Eurofins Discovery (DiscoverX KINOMEscan scanMAX)
Method: as §1

OSR1 = target: T11, OSR1 (Homo sapiens, UniProt O95747)
T11 construct: purchased Eurofins Discovery (DiscoverX KINOMEscan scanMAX)
Method: as §1

DAPK3 = target: T12, DAPK3 (Homo sapiens, UniProt O43293)
T12 construct: purchased Eurofins Discovery (DiscoverX KINOMEscan scanMAX)
Method: as §1

YSK4 = target: T13, YSK4 (Homo sapiens, UniProt Q56UN5)
T13 construct: purchased Eurofins Discovery (DiscoverX KINOMEscan scanMAX)
Method: as §1

[1] = target: T14, ABL1(Q252H)-phosphorylated (Homo sapiens, UniProt P00519, Q252H)
T14 construct: purchased Eurofins Discovery (DiscoverX KINOMEscan scanMAX)
Method: as §1

KIT(D816H) = target: T15, KIT(D816H) (Homo sapiens, UniProt P10721, D816H)
T15 construct: purchased Eurofins Discovery (DiscoverX KINOMEscan scanMAX)
Method: as §1

PIM2 = target: T16, PIM2 (Homo sapiens, UniProt Q9P1W9)
T16 construct: purchased Eurofins Discovery (DiscoverX KINOMEscan scanMAX)
Method: as §1

ERK8 = target: T17, ERK8 (Homo sapiens, UniProt Q8TD08)
T17 construct: purchased Eurofins Discovery (DiscoverX KINOMEscan scanMAX)
Method: as §1

[2] = target: T18, RSK4(Kin.Dom.2-C-terminal) (Homo sapiens, UniProt Q9UK32)
T18 construct: RSK4(Kin.Dom.2-C-terminal); purchased Eurofins Discovery (DiscoverX KINOMEscan scanMAX)
Method: as §1

CDK5 = target: T19, CDK5 (Homo sapiens, UniProt Q00535)
T19 construct: purchased Eurofins Discovery (DiscoverX KINOMEscan scanMAX)
Method: as §1

CLK1 = target: T20, CLK1 (Homo sapiens, UniProt P49759)
T20 construct: purchased Eurofins Discovery (DiscoverX KINOMEscan scanMAX)
Method: as §1

GRK7 = target: T21, GRK7 (Homo sapiens, UniProt Q8WTQ7)
T21 construct: purchased Eurofins Discovery (DiscoverX KINOMEscan scanMAX)
Method: as §1

DDR1 = target: T22, DDR1 (Homo sapiens, UniProt Q08345)
T22 construct: purchased Eurofins Discovery (DiscoverX KINOMEscan scanMAX)
Method: as §1

NEK3 = target: T23, NEK3 (Homo sapiens, UniProt P51956)
T23 construct: purchased Eurofins Discovery (DiscoverX KINOMEscan scanMAX)
Method: as §1

NEK1 = target: T24, NEK1 (Homo sapiens, UniProt Q96PY6)
T24 construct: purchased Eurofins Discovery (DiscoverX KINOMEscan scanMAX)
Method: as §1

EIF2AK1 = target: T25, EIF2AK1 (Homo sapiens, UniProt Q9BQI3)
T25 construct: purchased Eurofins Discovery (DiscoverX KINOMEscan scanMAX)
Method: as §1

PRKG1 = target: T26, PRKG1 (Homo sapiens, UniProt Q13976)
T26 construct: purchased Eurofins Discovery (DiscoverX KINOMEscan scanMAX)
Method: as §1

MELK = target: T27, MELK (Homo sapiens, UniProt Q14680)
T27 construct: purchased Eurofins Discovery (DiscoverX KINOMEscan scanMAX)
Method: as §1

PIK3CA(M1043I) = target: T28, PIK3CA(M1043I) (Homo sapiens, UniProt P42336, M1043I)
T28 construct: purchased Eurofins Discovery (DiscoverX KINOMEscan scanMAX)
Method: as §1

MTOR = target: T29, MTOR (Homo sapiens, UniProt P42345)
T29 construct: purchased Eurofins Discovery (DiscoverX KINOMEscan scanMAX)
Method: as §1

MAP3K3 = target: T30, MAP3K3 (Homo sapiens, UniProt Q99759)
T30 construct: purchased Eurofins Discovery (DiscoverX KINOMEscan scanMAX)
Method: as §1

RET = target: T31, RET (Homo sapiens, UniProt P07949)
T31 construct: purchased Eurofins Discovery (DiscoverX KINOMEscan scanMAX)
Method: as §1

DCAMKL3 = target: T32, DCAMKL3 (Homo sapiens, UniProt Q9C098)
T32 construct: purchased Eurofins Discovery (DiscoverX KINOMEscan scanMAX)
Method: as §1

FLT3(R834Q) = target: T33, FLT3(R834Q) (Homo sapiens, UniProt P36888, R834Q)
T33 construct: purchased Eurofins Discovery (DiscoverX KINOMEscan scanMAX)
Method: as §1

SIK2 = target: T34, SIK2 (Homo sapiens, UniProt Q9H0K1)
T34 construct: purchased Eurofins Discovery (DiscoverX KINOMEscan scanMAX)
Method: as §1

T2 sequence (P08631 whole entry): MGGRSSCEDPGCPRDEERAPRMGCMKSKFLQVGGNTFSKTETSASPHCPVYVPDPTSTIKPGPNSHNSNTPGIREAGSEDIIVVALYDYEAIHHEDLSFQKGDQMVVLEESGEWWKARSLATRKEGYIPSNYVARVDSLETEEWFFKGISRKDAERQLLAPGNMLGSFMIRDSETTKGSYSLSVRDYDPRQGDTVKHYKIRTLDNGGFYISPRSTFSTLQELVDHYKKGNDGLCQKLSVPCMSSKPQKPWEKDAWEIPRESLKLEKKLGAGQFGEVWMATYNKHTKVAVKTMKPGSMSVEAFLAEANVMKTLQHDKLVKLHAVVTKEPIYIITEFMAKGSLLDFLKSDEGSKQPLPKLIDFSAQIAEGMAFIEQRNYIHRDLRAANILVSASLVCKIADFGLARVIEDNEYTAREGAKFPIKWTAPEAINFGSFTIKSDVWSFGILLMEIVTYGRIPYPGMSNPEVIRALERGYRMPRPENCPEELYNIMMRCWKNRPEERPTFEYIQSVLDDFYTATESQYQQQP
T32 sequence (Q9C098 whole entry): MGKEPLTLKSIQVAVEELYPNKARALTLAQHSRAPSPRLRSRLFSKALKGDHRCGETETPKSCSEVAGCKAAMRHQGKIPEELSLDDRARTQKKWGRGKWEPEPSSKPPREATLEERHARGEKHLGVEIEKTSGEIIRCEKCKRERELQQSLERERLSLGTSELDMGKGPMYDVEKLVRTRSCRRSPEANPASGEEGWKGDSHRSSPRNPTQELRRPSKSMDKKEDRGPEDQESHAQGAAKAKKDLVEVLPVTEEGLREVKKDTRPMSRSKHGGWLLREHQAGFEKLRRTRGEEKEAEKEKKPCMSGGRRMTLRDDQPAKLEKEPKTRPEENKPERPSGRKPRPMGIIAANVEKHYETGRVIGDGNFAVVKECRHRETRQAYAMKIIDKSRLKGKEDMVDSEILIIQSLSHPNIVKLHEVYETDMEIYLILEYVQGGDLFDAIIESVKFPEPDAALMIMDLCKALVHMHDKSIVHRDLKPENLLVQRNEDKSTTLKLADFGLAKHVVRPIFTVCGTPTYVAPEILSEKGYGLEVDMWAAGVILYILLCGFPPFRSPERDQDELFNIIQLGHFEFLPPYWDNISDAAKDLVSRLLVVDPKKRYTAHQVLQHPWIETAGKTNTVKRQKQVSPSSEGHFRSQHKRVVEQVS
T34 sequence (Q9H0K1 whole entry): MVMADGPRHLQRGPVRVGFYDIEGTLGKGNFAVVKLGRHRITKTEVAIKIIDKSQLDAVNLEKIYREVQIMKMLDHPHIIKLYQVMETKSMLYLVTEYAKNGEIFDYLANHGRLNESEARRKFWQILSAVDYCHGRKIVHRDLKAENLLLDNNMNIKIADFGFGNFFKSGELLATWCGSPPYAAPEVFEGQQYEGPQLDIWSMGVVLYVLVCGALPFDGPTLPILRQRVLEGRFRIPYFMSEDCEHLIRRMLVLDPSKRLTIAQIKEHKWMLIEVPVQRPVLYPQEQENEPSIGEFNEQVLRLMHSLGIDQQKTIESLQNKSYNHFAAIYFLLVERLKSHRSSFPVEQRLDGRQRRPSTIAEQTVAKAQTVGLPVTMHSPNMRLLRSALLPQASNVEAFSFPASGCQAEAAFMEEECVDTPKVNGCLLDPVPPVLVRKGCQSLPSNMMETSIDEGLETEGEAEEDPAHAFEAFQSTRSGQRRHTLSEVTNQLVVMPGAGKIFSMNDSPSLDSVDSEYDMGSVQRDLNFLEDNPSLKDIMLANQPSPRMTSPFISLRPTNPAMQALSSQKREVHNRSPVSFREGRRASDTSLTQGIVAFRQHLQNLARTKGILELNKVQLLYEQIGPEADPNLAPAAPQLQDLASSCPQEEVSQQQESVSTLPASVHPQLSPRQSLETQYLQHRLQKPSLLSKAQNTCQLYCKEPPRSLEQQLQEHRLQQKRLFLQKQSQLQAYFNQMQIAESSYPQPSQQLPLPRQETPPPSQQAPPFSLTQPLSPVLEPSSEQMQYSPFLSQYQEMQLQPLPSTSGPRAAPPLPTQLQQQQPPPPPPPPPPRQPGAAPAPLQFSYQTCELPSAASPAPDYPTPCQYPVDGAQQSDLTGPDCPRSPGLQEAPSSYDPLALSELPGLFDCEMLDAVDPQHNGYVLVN
T18 sequence (Q9UK32 401-745 limits assumed): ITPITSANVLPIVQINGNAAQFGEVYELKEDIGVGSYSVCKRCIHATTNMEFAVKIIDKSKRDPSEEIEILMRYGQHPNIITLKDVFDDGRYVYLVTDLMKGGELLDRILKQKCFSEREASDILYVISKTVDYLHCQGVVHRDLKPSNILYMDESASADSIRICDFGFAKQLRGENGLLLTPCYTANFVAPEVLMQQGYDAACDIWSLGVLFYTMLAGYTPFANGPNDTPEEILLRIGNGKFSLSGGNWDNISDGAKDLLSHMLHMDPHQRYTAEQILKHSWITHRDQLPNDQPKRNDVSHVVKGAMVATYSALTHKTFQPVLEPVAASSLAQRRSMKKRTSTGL
T4 sequence (P09619 33-1106): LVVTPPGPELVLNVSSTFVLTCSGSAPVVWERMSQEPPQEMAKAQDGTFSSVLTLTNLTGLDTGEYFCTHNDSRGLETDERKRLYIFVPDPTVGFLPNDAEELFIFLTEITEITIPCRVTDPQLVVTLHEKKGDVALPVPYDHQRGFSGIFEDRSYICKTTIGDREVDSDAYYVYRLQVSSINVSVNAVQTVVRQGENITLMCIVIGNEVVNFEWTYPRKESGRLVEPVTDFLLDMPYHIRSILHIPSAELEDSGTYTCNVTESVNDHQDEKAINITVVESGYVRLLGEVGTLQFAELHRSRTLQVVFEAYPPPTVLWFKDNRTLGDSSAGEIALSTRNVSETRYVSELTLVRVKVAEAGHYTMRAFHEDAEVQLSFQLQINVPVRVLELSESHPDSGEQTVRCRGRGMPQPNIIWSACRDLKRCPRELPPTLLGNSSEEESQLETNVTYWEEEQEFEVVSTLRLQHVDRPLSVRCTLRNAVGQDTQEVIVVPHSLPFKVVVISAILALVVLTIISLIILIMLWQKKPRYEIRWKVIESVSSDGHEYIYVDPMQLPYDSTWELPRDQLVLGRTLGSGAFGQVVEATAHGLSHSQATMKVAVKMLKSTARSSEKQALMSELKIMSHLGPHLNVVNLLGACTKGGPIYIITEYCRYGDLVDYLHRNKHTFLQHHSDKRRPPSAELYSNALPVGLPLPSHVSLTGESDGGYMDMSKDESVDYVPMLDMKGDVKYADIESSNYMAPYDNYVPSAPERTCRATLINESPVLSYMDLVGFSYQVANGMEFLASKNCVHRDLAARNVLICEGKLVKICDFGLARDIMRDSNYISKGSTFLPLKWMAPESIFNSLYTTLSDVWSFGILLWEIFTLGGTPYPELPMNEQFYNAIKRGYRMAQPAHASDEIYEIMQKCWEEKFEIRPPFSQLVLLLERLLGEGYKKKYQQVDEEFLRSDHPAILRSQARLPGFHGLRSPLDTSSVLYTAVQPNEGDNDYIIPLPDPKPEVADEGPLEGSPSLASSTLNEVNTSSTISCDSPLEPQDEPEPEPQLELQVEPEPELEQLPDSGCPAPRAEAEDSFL
T3 sequence (P08581 25-1390): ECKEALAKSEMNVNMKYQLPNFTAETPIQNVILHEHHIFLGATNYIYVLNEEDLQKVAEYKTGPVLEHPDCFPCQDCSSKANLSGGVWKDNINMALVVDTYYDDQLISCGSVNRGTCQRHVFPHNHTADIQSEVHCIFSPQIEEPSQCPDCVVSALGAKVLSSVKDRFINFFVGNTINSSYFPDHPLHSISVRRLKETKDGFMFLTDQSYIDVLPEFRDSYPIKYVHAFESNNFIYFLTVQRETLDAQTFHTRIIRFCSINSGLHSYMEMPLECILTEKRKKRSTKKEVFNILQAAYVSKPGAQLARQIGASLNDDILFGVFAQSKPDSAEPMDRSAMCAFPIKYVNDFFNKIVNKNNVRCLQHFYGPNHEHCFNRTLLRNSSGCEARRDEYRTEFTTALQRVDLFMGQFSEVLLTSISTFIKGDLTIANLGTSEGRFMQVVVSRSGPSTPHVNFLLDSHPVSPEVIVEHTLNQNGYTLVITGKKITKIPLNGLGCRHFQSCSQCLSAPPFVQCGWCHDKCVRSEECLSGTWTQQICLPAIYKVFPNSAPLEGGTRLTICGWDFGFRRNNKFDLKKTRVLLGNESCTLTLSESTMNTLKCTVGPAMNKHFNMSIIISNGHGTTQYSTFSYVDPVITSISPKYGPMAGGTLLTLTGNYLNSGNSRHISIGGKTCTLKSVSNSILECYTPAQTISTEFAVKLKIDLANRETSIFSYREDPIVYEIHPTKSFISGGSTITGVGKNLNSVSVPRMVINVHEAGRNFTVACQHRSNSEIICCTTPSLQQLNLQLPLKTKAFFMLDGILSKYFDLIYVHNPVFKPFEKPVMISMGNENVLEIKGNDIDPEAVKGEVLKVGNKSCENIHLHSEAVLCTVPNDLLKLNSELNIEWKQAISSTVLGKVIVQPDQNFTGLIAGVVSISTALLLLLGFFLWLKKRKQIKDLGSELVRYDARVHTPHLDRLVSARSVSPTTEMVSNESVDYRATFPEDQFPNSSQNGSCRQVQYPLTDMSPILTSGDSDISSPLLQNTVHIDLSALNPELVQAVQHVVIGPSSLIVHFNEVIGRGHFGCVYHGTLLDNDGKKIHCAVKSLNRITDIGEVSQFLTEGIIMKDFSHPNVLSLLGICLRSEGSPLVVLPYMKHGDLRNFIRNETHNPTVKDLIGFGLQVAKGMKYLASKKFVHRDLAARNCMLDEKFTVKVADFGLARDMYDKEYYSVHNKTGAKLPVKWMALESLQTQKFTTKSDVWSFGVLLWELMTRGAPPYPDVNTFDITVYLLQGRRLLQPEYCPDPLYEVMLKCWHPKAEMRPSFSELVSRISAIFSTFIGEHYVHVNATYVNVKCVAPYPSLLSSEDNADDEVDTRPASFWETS

Cc1cc(Nc2ccc(F)c(CC3(C(=O)N4CCC(F)(CN5CCN(c6ccc(N7CCC(=O)NC7=O)cn6)CC5)CC4)CCN(Cc4cccc(Cl)c4F)CC3)n2)n[nH]1 [SK5527]
remaining binding at 0.1 µM (p38-delta; 100 nM): 100% | remaining binding at 1 µM (p38-delta; 1000 nM): 100% | remaining binding at 0.1 µM (HCK; 100 nM): 100% | remaining binding at 1 µM (HCK; 1000 nM): 100% | remaining binding at 0.1 µM (MET; 100 nM): 94% | remaining binding at 1 µM (MET; 1000 nM): 81% | remaining binding at 0.1 µM (PDGFRB; 100 nM): 100% | remaining binding at 1 µM (PDGFRB; 1000 nM): 63% | remaining binding at 0.1 µM (TRPM6; 100 nM): 100% | remaining binding at 1 µM (TRPM6; 1000 nM): 100% | remaining binding at 0.1 µM (LIMK2; 100 nM): 100% | remaining binding at 1 µM (LIMK2; 1000 nM): 98% | remaining binding at 0.1 µM (ERBB3; 100 nM): 100% | remaining binding at 1 µM (ERBB3; 1000 nM): 100% | remaining binding at 0.1 µM (CDKL1; 100 nM): 99% | remaining binding at 1 µM (CDKL1; 1000 nM): 94% | remaining binding at 0.1 µM (FGFR2; 100 nM): 100% | remaining binding at 1 µM (FGFR2; 1000 nM): 90% | remaining binding at 0.1 µM (SGK3; 100 nM): 100% | remaining binding at 1 µM (SGK3; 1000 nM): 88% | remaining binding at 0.1 µM (OSR1; 100 nM): 100% | remaining binding at 1 µM (OSR1; 1000 nM): 97% | remaining binding at 0.1 µM (DAPK3; 100 nM): 100% | remaining binding at 1 µM (DAPK3; 1000 nM): 100% | remaining binding at 0.1 µM (YSK4; 100 nM): 72% | remaining binding at 1 µM (YSK4; 1000 nM): 72% | remaining binding at 0.1 µM ([1]; 100 nM): 68% | remaining binding at 1 µM ([1]; 1000 nM): 44% | remaining binding at 0.1 µM (KIT(D816H); 100 nM): 100% | remaining binding at 1 µM (KIT(D816H); 1000 nM): 100% | remaining binding at 0.1 µM (PIM2; 100 nM): 60% | remaining binding at 1 µM (PIM2; 1000 nM): 71% | remaining binding at 0.1 µM (ERK8; 100 nM): 89% | remaining binding at 1 µM (ERK8; 1000 nM): 92% | remaining binding at 0.1 µM ([2]; 100 nM): 75% | remaining binding at 1 µM ([2]; 1000 nM): 80% | remaining binding at 0.1 µM (CDK5; 100 nM): 100% | remaining binding at 1 µM (CDK5; 1000 nM): 100% | remaining binding at 0.1 µM (CLK1; 100 nM): 92% | remaining binding at 1 µM (CLK1; 1000 nM): 77% | remaining binding at 0.1 µM (GRK7; 100 nM): 100% | remaining binding at 1 µM (GRK7; 1000 nM): 56% | remaining binding at 0.1 µM (DDR1; 100 nM): 98% | remaining binding at 1 µM (DDR1; 1000 nM): 93% | remaining binding at 0.1 µM (NEK3; 100 nM): 88% | remaining binding at 1 µM (NEK3; 1000 nM): 61% | remaining binding at 0.1 µM (NEK1; 100 nM): 100% | remaining binding at 1 µM (NEK1; 1000 nM): 86% | remaining binding at 0.1 µM (EIF2AK1; 100 nM): 81% | remaining binding at 1 µM (EIF2AK1; 1000 nM): 70% | remaining binding at 0.1 µM (PRKG1; 100 nM): 92% | remaining binding at 1 µM (PRKG1; 1000 nM): 100% | remaining binding at 0.1 µM (MELK; 100 nM): 99% | remaining binding at 1 µM (MELK; 1000 nM): 87% | remaining binding at 0.1 µM (PIK3CA(M1043I); 100 nM): 100% | remaining binding at 1 µM (PIK3CA(M1043I); 1000 nM): 100% | remaining binding at 0.1 µM (MTOR; 100 nM): 100% | remaining binding at 1 µM (MTOR; 1000 nM): 100% | remaining binding at 0.1 µM (MAP3K3; 100 nM): 100% | remaining binding at 1 µM (MAP3K3; 1000 nM): 96% | remaining binding at 0.1 µM (RET; 100 nM): 88% | remaining binding at 1 µM (RET; 1000 nM): 39% | remaining binding at 0.1 µM (DCAMKL3; 100 nM): 100% | remaining binding at 1 µM (DCAMKL3; 1000 nM): 100% | remaining binding at 0.1 µM (FLT3(R834Q); 100 nM): 86% | remaining binding at 1 µM (FLT3(R834Q); 1000 nM): 75% | remaining binding at 0.1 µM (SIK2; 100 nM): 100% | remaining binding at 1 µM (SIK2; 1000 nM): 93%
